Experimental data as given in PMC10793205, “Differential transmetallation of complexes of the anti-cancer thiosemicarbazone, Dp4e4mT: effects on anti-proliferative efficacy, redox activity, oxy-myoglobin and oxy-hemoglobin oxidation” (Chemical Science, 2023).
“Also recorded” adds a separate entry of the source.

Experiments:
[1] = molecular target: T1, oxy-Hb in intact human erythrocytes (Homo sapiens, UniProt P68871+P69905); assay: Oxidation of oxy-Hb in intact human erythrocytes; assay type: cell-based; settings: 10 μM, 3 h/37 °C; for oxy-Hb oxidation to met-Hb in erythrocytes: control 0.5%
T1 construct: Physiologically, oxy-Hb is found in erythrocytes; endogenous in cells; host or cells: intact human erythrocytes from fresh blood of healthy donors
Method: Fig. 7 (A and B) Investigation of the effects of Dp4e4mT and its Fe(III), Co(III), Ni(II), Cu(II), Zn(II), Ga(III), and Pd(II) complexes versus DFO, Dp44mT, DpC and their Fe(III) complexes (10 μM) on met-Hb generation (% zero time) after an incubation of 1–3 h/20 °C with purified oxy-Hb (40 μM). (C) Investigation of the effects of Dp4e4mT and its Fe(III), Co(III), Ni(II), Cu(II), Zn(II), Ga(III), or Pd(II) complexes relative to the positive controls DFO, Dp44mT, DpC, and their Fe(III) complexes (10 μM) on oxy-Hb oxidation in intact human erythrocytes after a 3 h/37 °C incubation. Results are mean ± SD (3 experiments).
Physiologically, oxy-Hb is found in erythrocytes, and in the current investigation, the ligands and complexes (10 μM) were incubated with intact human erythrocytes for 3 h/37 °C to assess their effects on oxy-Hb oxidation (Fig. 7C). As expected from our previous studies,[28,39] […]
In experiments examining the activity of the agents, all complexes were dissolved in 1,2-propanediol, then diluted to 10 µM in PBS (pH 7.2). […]
1800; Shimadzu, Kyoto, Japan). Concentrations of met-Mb and met-Hb, as well as reduced-Mb and reduced-Hb, were determined at 409 nm and 435 nm, respectively. Concentrations of oxy-Mb and oxy-Hb were determined at 544 nm and 582 nm, respectively. 17 Oxidation of Oxy-Hb in Human Erythrocytes
Oxidation of oxy-Hb in human erythrocytes was performed by standard methods using fresh blood from healthy donors after collection in Vacutainer® collection tubes (BD, Plymouth, UK).8 Erythrocytes centrifuged (480 xg/5 min/4°C) and then washed in HBSS, and subsequently resuspended in this buffer. Incubation of the erythrocytes (15% hematocrit) in the absence or presence of the agents (10 μM) was performed for 3 h/37°C. The erythrocytes were […]

[2] = Transmetallation kinetics with FeCl3 in DMSO (time-resolved UV-vis); assay type: physicochemical; settings: for Observed pseudo first order rate constant kobs, FeCl3: 10-fold excess of FeCl3 in DMSO, 25 °C; for t½, transmetallation with FeCl3: FeCl3 in DMSO
Method: The capacity of the Fe(III), Ni(II), Co(III), Zn(II), Ga(III), and Pd(II) complexes of Dp4e4mT to transmetallate with Cu(II) and/or Fe(III) to result in redox active Cu(II) and Fe(III) complexes could be critical in understanding their anti-proliferative efficacy, redox activity, and ability to oxidize oxy-Mb and oxy-Hb. To examine this, LC-MS spectrometry was performed in DMSO after the addition of 1 equivalent of FeCl3 or Cu(OAc)2 and the solutions then incubated for 24 h/20 °C due to slow reaction kinetics. This solution was then diluted 1 : 1 in methanol and LC-MS performed using a mobile phase consisting of 90% MeOH, 9.9% water, and 0.1% formic acid (Fig. S2–S9 ^†). These investigations were supported by EPR studies in DMSO after the addition of 1 equivalent of FeCl3 or Cu(OAc)2 incubated under the same conditions (Fig. 3A–G). As a third method to investigate transmetallation, kinetic studies using time-resolved UV-vis spectroscopy were performed under pseudo-first order conditions with a 10-fold excess of FeCl3 or Cu(OAc)2 in DMSO (Fig. S11–S16 ^†). The pseudo-first order rate constants were calculated from the time-dependent UV-vis spectroscopy data (at all wavelengths) with Reactlab Kinetics[49] and collected in Table S2. ^† […]
Time-dependent UV-Vis absorption spectra were measured on an Agilent 8453 diode array UV−Vis spectrophotometer, equipped with a thermostatted (± 0.1 °C) multicell transport cooled by a Huber Ministat 230 recirculating cooling bath. Spectral analysis was carried out with Reactlab Kinetics. 10 […]
Table S2. Observed pseudo first order rate constants (k obs, s−1) for reactions of each Dp4e4mT complex with a 10-fold excess of Cu(OAc) 2 or FeCl 3 in DMSO or water (pH 7.4 or 5.0) at 25 °C. […]
[Co(Dp4e4mT)2]+ No reaction No reaction No reaction No reaction […]
a Reaction could not be deciphered by UV-Vis spectroscopy; bchlorido ligand hydrolysis

[3] = Cyclic voltammetry (redox potentials); assay type: physicochemical; settings: 1 mM in MeCN/H2O 7 : 3 (v/v) + 0.1 M Et4NClO4, sweep rate 100 mV s^−1
Text: The redox potentials of Fe(III)- and Cu(II)-thiosemicarbazone complexes have been extensively studied and are important for understanding intracellular redox activity and ROS generation.[23,27,28,42] Considering this, the electrochemical properties of [Fe(Dp44mT)2]^+, [Fe(DpC)2]^+, [Fe(Dp4e4mT)2]^+, [Co(Dp4e4mT)2]^+, [Ni(Dp4e4mT)2], [Cu(Dp4e4mT)Cl], [Ga(Dp4e4mT)2]^+, and [Pd(Dp4e4mT)Cl] were investigated with cyclic voltammetry in MeCN : H2O (70 : 30 v/v; Fig. 4A and B). This solvent system was implemented to provide sufficient solubility and because it has been used by our laboratories previously to measure potentials of thiosemicarbazone complexes enabling effective comparison.[28,45,57–59]
Fig. 4 Cyclic voltammograms of: (A) [Fe(Dp44mT)2]^+, [Fe(DpC)2]^+, and [Fe(Dp4e4mT)2]^+. (B) [Co(Dp4e4mT)2]^+, [Ni(Dp4e4mT)2], [Cu(Dp4e4mT)Cl], [Ga(Dp4e4mT)2]^+, and [Pd(Dp4e4mT)Cl] (1 mM in MeCN/H2O 7 : 3 (v/v) + 0.1 M Et4NClO4) at a sweep rate of 100 mV s^−1. The voltammograms were recorded using a glassy carbon working electrode versus a […] (NHE). […]
Cyclic voltammograms were acquired for the Fe(III), Co(III), Ni(II), Cu(II), Ga(III), and Pd(II) complexes of Dp4e4mT utilizing a BAS100B/W potentiostat, equipped with an aqueous Ag/AgCl reference electrode, a glassy carbon working electrode, and a Pt wire auxiliary […]
electrode. […]

[4] = listed as Dp4e4mT Pd(II) complex

T1 sequence (P69905 2-142 limits assumed): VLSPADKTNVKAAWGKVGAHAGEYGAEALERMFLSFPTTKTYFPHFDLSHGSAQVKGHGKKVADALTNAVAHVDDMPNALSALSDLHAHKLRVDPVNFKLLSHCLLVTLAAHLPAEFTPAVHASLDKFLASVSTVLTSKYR
T1 sequence (P68871 2-147 limits assumed): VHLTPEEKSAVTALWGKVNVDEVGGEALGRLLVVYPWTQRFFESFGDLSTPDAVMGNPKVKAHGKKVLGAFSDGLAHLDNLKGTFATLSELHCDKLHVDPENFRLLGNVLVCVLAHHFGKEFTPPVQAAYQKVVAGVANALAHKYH

oxy-Hb oxidation in erythrocytes versus the control (in words) [1]	oxy-Hb oxidation to met-Hb in erythrocytes [1]	Redox potential (mV vs. NHE) [3]	SMILES	Observed pseudo first order rate constant kobs, FeCl3 [2]	further results
negligible effects on oxy-Hb oxidation	–	–	CCN(C)C([S-])=NN=C(c1ccccn1)c1ccccn1.CCN(C)C([S-])=NN=C(c1ccccn1)c1ccccn1.[Zn+2] [[Zn(Dp4e4mT)2]]	0.00891 s⁻¹	oxy-Hb oxidation in erythrocytes versus the control (in words) ([1]; listed as Dp4e4mT Zn(II) complex): no (p > 0.05) significant effect on oxy-Hb oxidation; t½, transmetallation with FeCl3 [2]: ~0.017 h
–	1.9 % of the total	–	CCN(C)C(=S)NN=C(c1ccccn1)c1ccccn1 [Dp4e4mT, di-2-pyridylketone-4-ethyl-4-methyl-3-thiosemicarbazone]	–	–
negligible effects on oxy-Hb oxidation	–	–626 (irreversible) mV vs. NHE	CCN(C)C([S-])=NN=C(c1ccccn1)c1ccccn1.[Cl-].[Pd+2] [[Pd(Dp4e4mT)Cl]]	No reaction	Redox potential (mV vs. NHE) [3, 4]: −626 mV vs. NHE; oxy-Hb oxidation in erythrocytes versus the control (in words) [1, 4]: no (p > 0.05) significant effect on oxy-Hb oxidation
negligible effects on oxy-Hb oxidation	–	−151 mV vs. NHE	CCN(C)C([S-])=NN=C(c1ccccn1)c1ccccn1.[Cl-].[Cu+2] [[Cu(Dp4e4mT)Cl]]	No reaction	Redox potential (mV vs. NHE) ([3]; listed as [Cu(Dp4e4mT)(Cl)]^±): –151 mV vs. NHE
–	2.3 % of the total	–	CN(C)C(=S)NN=C(c1ccccn1)c1ccccn1 [Dp44mT, di-2-pyridylketone 4,4-dimethyl-3-thiosemicarbazone, reference compound]	–	–
–	4.8 % of the total	+70 mV vs. NHE	CCN(C)C([S-])=NN=C(c1ccccn1)c1ccccn1.CCN(C)C([S-])=NN=C(c1ccccn1)c1ccccn1.[Fe+3] [[Fe(Dp4e4mT)2]^+]	–	–
slight effect	1.3 % of the total	–	CCN(C)C([S-])=NN=C(c1ccccn1)c1ccccn1.CCN(C)C([S-])=NN=C(c1ccccn1)c1ccccn1.[Ga+3] [[Ga(Dp4e4mT)2]^+]	–	Redox potential (mV vs. NHE) ([3]; listed as Dp4e4mT Ga(III) complex): −533 mV vs. NHE; Redox potential (mV vs. NHE) ([3]; listed as [Ga(Dp4e4mT)2]^+/0): –533 (irreversible) mV vs. NHE; t½, transmetallation with FeCl3 [2]: 3 to 4 h
negligible effects on oxy-Hb oxidation	–	–642 mV vs. NHE	CCN(C)C([S-])=NN=C(c1ccccn1)c1ccccn1.CCN(C)C([S-])=NN=C(c1ccccn1)c1ccccn1.[Co+3] [[Co(Dp4e4mT)2]^+]	No reaction	oxy-Hb oxidation in erythrocytes versus the control (in words) ([1]; listed as Dp4e4mT Co(III) complex): no (p > 0.05) significant effect on oxy-Hb oxidation
negligible effects on oxy-Hb oxidation	–	+647 mV vs. NHE	CCN(C)C([S-])=NN=C(c1ccccn1)c1ccccn1.CCN(C)C([S-])=NN=C(c1ccccn1)c1ccccn1.[Ni+2] [[Ni(Dp4e4mT)2]]	No reaction; also recorded: unreactive	oxy-Hb oxidation in erythrocytes versus the control (in words) ([1]; listed as Dp4e4mT Ni(II) complex): no (p > 0.05) significant effect on oxy-Hb oxidation; extent of reaction with Fe(III) ([2]; DMSO, after 3 days): ~20%

SMILES	oxy-Hb oxidation in erythrocytes versus the control (in words) [1]	oxy-Hb oxidation to met-Hb in erythrocytes [1]	Redox potential (mV vs. NHE) [3]	Observed pseudo first order rate constant kobs, FeCl3 [2]	further results
CN(C(=S)NN=C(c1ccccn1)c1ccccn1)C1CCCCC1 [DpC, di-2-pyridylketone 4-cyclohexyl-4-methyl-3-thiosemicarbazone, reference compound]	did not induce any significant (p > 0.05) increase in oxy-Hb oxidation	–	–	–	–
